The values below come from patent US20170253607A1, “LONG-ACTING HIV PROTEASE INHIBITOR” (Shionogi & Co., Ltd., priority 2014, published 2017).

For this test, the target named is HIV-1 PR (Human immunodeficiency virus type 1 group M subtype B, UniProt P04585). Kind of test: HIV-protease inhibitory activity assay (FRET peptide substrate). The test is classed as biochemical. Conditions: Test Example 1. The procedure, abridged: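 HIV-1 PR (0.83 ng) preincubated with compounds 20 min at room temperature in 0.1 mol/L NaAc, 0.5 mol/L NaCl, 1 mmol/L EDTA, 1 mmol/L DTT, 0.05% Tween 20, pH 4.8. Cleavage of HiLyte Fluor 488/QXL 520 FRET peptide (2 μmol/L) read after 60 minutes at 485/535 nm; IC50 from four-parameter logistic fit.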
Broadly, the IC50 is the midpoint of a concentration-inhibition curve. Low readings indicate inhibition by little substance, high ones a need for much substance. Consider `COc1ccc(S(=O)(=O)N(CC(C)C)CC(O)C(Cc2ccc(NCc3cnn4ccc(C(=O)O)nc34)cc2)NC(=O)OC2COC3(C)OCCC23)cc1` (stereo not drawn) [Compound I-320], for which the 50% inhibitory concentration (IC50) worked out at 1.95 nM.
With `CCN(Cc1ccccc1C(=O)Nc1sc2c(c1C(=O)O)CC(C)(C)CC2)c1ccc(CC(NC(=O)OC2COC3(C)OCCC23)C(O)CN(CC(C)C)S(=O)(=O)c2ccc(OC)cc2)cc1` (stereo not drawn) [Compound I-669] the figure was 8.54 nM; with `COc1ccc(S(=O)(=O)N(CC(C)C)CC(O)C(Cc2ccc(NCc3cccc(F)c3C(=O)Nc3sc4c(c3C(=O)O)CC(C)(C)CC4)cc2)NC(=O)OC2COC3(C)OCCC23)cc1` (stereo not drawn) [Compound I-749], 2.33 nM.
As for `COc1ccc(S(=O)(=O)N(CC(C)C)C[C@@H](O)[C@H](Cc2ccc(OCc3ccccc3-c3sc4c(c3C(=O)O)CC(C)(C)CC4)cc2)NC(=O)O[C@@H]2C[C@@H]3[C@@H](OC(C)=O)CO[C@@H]3C2)cc1` [Compound I-28], inhibition was half-maximal at 1.63 nM (IC50).
With `CC1(C)CCc2sc(-c3ccc(CNC(=O)OC[C@]45OCC[C@H]4[C@@H](OC(=O)N[C@@H](Cc4ccccc4)[C@H](O)CN(CC(F)F)S(=O)(=O)c4ccc6ncsc6c4)CO5)cc3)c(C(=O)O)c2C1` [Compound I-32] the figure was 1.37 nM; with `COc1ccc(S(=O)(=O)N(CC(C)C)CC(O)C(Cc2ccc(NCC3=C(c4sc5c(c4C(=O)O)CC(C)(C)CC5)CCC(F)(F)C3)cc2)NC(=O)OC2COC3(C)OCCC23)cc1` (stereo not drawn) [Compound I-705], 4.87 nM.
With `COc1ccc(S(=O)(=O)N(CC(C)C)CC(O)C(Cc2ccc(OC3CC(N(C)c4ccccc4-c4sc5c(c4C(=O)O)CC(C)(C)CC5)C3)cc2)NC(=O)OC2COC3(C)OCCC23)cc1` (stereo not drawn) [Compound I-382], the midpoint of inhibition, the IC50, lay at 7.26 nM.
With `CC(C)CN(CC(O)C(Cc1ccc(OCc2ccc3ccccc3c2C(N)=O)cc1)NC(=O)OC1COC2(C)OCCC12)S(=O)(=O)c1ccc2ncsc2c1` (stereo not drawn) [Compound I-162] the figure was 0.96 nM; with `COc1ccc(S(=O)(=O)N(CC(C)C)CC(O)C(Cc2ccc(OCc3cccc(OC)c3-c3sc4c(c3C(=O)O)CC(C)(C)CC4)cc2)NC(=O)OC2COC3(C)OCCC23)cc1` (stereo not drawn) [Compound I-186], 2.14 nM.
`COc1ccc(S(=O)(=O)N(CC(C)C)CC(O)C(Cc2ccc(CN(C)C3CCCCC3c3sc4c(c3C(=O)O)CC(C)(C)CC4)cc2)NC(=O)OC2COC3(C)OCCC23)cc1` (stereo not drawn) [Compound I-342] had an IC50 of 2.06 nM.
To `COc1ccc(S(=O)(=O)N(CC(C)C)CC(O)C(Cc2ccc(NCc3cccc(-c4sc5c(c4C(=O)O)CC(C)(C)CC5)c3)cc2)NC(=O)OC2COC3(C)OCCC23)cc1` (stereo not drawn) [Compound I-254] belongs 2.64 nM; to `COc1ccc(S(=O)(=O)N(CC(C)C)CC(O)C(Cc2ccc(OCc3ccccc3OCC(=O)O)cc2)NC(=O)OC2COC3(C)OCCC23)cc1` (stereo not drawn) [Compound I-311], 1.88 nM; to `COc1ccc(S(=O)(=O)N(CC(C)C)CC(O)C(Cc2ccc(N(Cc3ccccc3-c3sc4c(c3C(=O)O)CC(C)(C)CC4)C(C)=O)cc2)NC(=O)OC2COC3(C)OCCC23)cc1` (stereo not drawn) [Compound I-339], 1.83 nM.
With `COc1ccc(S(=O)(=O)N(CC(C)C)CC(O)C(Cc2ccc(OCc3cc(Cc4ccc(F)cc4)cnc3C(=O)O)cc2)NC(=O)OC2COC3(C)OCCC23)cc1` (stereo not drawn) [Compound I-308] the figure was 1.91 nM; with `COc1ccc(S(=O)(=O)N(CC2CCCC2)CC(O)C(Cc2ccc(OCc3ccccc3Cn3nc(C(=O)O)c4c3CCC(C)(C)C4)cc2)NC(=O)OC2COC3(C)OCCC23)cc1` (stereo not drawn) [Compound I-221], 2.11 nM.
To `COc1ccc(S(=O)(=O)N(CC(C)C)CC(O)C(Cc2ccc(OC3CN(c4ccc(-c5sc6c(c5C(=O)O)CC(C)(C)CC6)cc4)C3)cc2)NC(=O)OC2COC3(C)OCCC23)cc1` (stereo not drawn) [Compound I-361] belongs 6.22 nM; to `COc1ccc(S(=O)(=O)N(CC(C)C)CC(O)C(Cc2ccc(OCc3ccccc3-c3sc(N4CCC(C)(C)CC4)nc3C(=O)O)cc2)NC(=O)OC2COC3OCCC23)cc1` (stereo not drawn) [Compound I-845], 0.85 nM; to `COc1ccc(S(=O)(=O)N(CC(C)C)CC(O)C(Cc2ccc(NCc3ccccc3-c3c(C(=O)O)n(Cc4ccccc4)c4ccc(OC)cc34)cc2)NC(=O)OC2COC3(C)OCCC23)cc1` (stereo not drawn) [Compound I-635], 2.1 nM.
`COc1ccc(S(=O)(=O)N(CC(C)C)CC(O)C(Cc2ccc(N(C)CC3COCCC3c3sc4c(c3C(=O)O)CC(C)(C)CC4)cc2)NC(=O)OC2COC3(C)OCCC23)cc1` (stereo not drawn) [Compound I-400] gave an IC50 of 1.69 nM.
To `CC1(C)CCc2sc(-c3cccnc3COc3ccc(CC(NC(=O)OC4COC5(C)OCCC45)C(O)CN(CC4CCCC4)S(=O)(=O)c4ccc5c(c4)CCO5)cc3)c(C(=O)O)c2C1` (stereo not drawn) [Compound I-189] belongs 2.53 nM; to `COc1ccc(S(=O)(=O)N(CC(C)C)CC(O)C(Cc2ccc(OCc3ncsc3-c3sc4c(c3C(=O)O)CC(C)(C)CC4)cc2)NC(=O)OC2COC3(C)OCCC23)cc1` (stereo not drawn) [Compound I-89], 1.11 nM; to `COc1ccc(S(=O)(=O)N(CC(C)C)CC(O)C(Cc2ccc(OCc3ccccc3-n3nc4c(c3C(=O)O)CC(c3ccccc3)CC4)cc2)NC(=O)OC2COC3(C)OCCC23)cc1` (stereo not drawn) [Compound I-144], 0.8 nM.
Compound `COc1ccc(S(=O)(=O)N(CC2CCCC2)CC(O)C(Cc2ccc(OCCn3nc4c(c3C(=O)O)CC(C)(C)CC4)cc2)NC(=O)OC2COC3(C)OCCC23)cc1` (stereo not drawn) [Compound I-366] had an IC50 of 2.72 nM.
With `COc1ccc(S(=O)(=O)N(CC(C)C)CC(O)C(Cc2ccc(NC3CCc4c(-c5sc6c(c5C(=O)O)CC(C)(C)CC6)cccc43)cc2)NC(=O)OC2COC3(C)OCCC23)cc1` (stereo not drawn) [Compound I-697] the figure was 2.9 nM; with `CN(Cc1ccccc1C(=O)Nc1sc2c(c1C(=O)O)CC(C)(C)CC2)c1ccc(CC(NC(=O)OC2COC3(C)OCCC23)C(O)CN(CC2CCCC2)S(=O)(=O)c2ccc3c(c2)OCO3)cc1` (stereo not drawn) [Compound I-681], 7.97 nM; with `COc1ccc(S(=O)(=O)N(CC(C)C)CC(O)C(Cc2ccc(NCc3cccc4c(-c5sc6c(c5C(=O)O)CC(C)(C)CC6)cccc34)cc2)NC(=O)OC2COC3(C)OCCC23)cc1` (stereo not drawn) [Compound I-675], 13.4 nM.
To `COc1ccc(S(=O)(=O)N(CC(C)C)CC(O)C(Cc2ccc(OCc3ncsc3-c3ccc(-c4sc5c(c4C(=O)O)CC(C)(C)CC5)cc3)cc2)NC(=O)OC2COC3(C)OCCC23)cc1` (stereo not drawn) [Compound I-111] belongs 1.48 nM.
To `COc1ccc(S(=O)(=O)N(CC(C)C)CC(O)C(Cc2ccc(N(CCc3ccccc3)Cc3ccccc3-c3sc4c(c3C(=O)O)CC(C)(C)CC4)cc2)NC(=O)OC2COC3(C)OCCC23)cc1` (stereo not drawn) [Compound I-421] belongs 14.7 nM; to `COc1ccc(S(=O)(=O)N(CC(C)C)CC(O)C(Cc2ccc(NCc3ccc(-c4sc5c(c4C(=O)O)CC(C)(C)CC5)c(C)c3)cc2)NC(=O)OC2COC3(C)OCCC23)cc1` (stereo not drawn) [Compound I-534], 4.11 nM; to `COc1ccc(S(=O)(=O)N(CC(C)C)CC(O)C(Cc2ccc(N(C)C3CCN(c4ccccc4-c4sc5c(c4C(=O)O)CC(C)(C)CC5)C3)cc2)NC(=O)OC2COC3(C)OCCC23)cc1` (stereo not drawn) [Compound I-239], 2.74 nM.
On to `COc1ccc(S(=O)(=O)N(CC(C)C)CC(O)C(Cc2ccc(OCC3CCN(c4ccc(-c5sc6c(c5C(=O)O)CC(C)(C)CC6)cc4)C3)cc2)NC(=O)OC2COC3(C)OCCC23)cc1` (stereo not drawn) [Compound I-894], for which the IC50 was determined as 20.4 nM. Against the preceding compound, the IC50 is about 7.4-fold higher.
To `COc1ccc(S(=O)(=O)N(CC(C)C)CC(O)C(Cc2ccc(OCc3ncsc3-c3sc4c(c3C(=O)O)CC(C)(C)CC4)cc2)NC(=O)OC2COC3OCCC23)cc1` (stereo not drawn) [Compound I-828] belongs 0.96 nM; to `COc1ccc(S(=O)(=O)N(CC(C)C)CC(O)C(Cc2ccc(NCCOc3ccc(-c4sc5c(c4C(=O)O)CC(C)(C)CC5)c(C)c3)cc2)NC(=O)OC2COC3(C)OCCC23)cc1` (stereo not drawn) [Compound I-518], 5.63 nM; to `COc1ccc(S(=O)(=O)N(CC(C)C)CC(O)C(Cc2ccc(OCc3ccccc3-c3sc4c(c3C(=O)NS(=O)(=O)C3CC3)CC(C)(C)CC4)cc2)NC(=O)OC2COC3(C)OCCC23)cc1` (stereo not drawn) [Compound I-58], 1.11 nM.
To `COc1ccc(S(=O)(=O)N(CC(C)C)CC(O)C(Cc2ccc(N(C)CC3COCCC3c3sc4c(c3C(=O)O)CC(C)(C)CC4)cc2)NC(=O)OC2COC3(C)OCCC23)cc1` (stereo not drawn) [Compound I-401] belongs 1.77 nM.
With `COc1ccc(S(=O)(=O)N(CC(C)C)CC(O)C(Cc2ccc(NCc3cccc(-c4ccccc4)c3-c3sc4c(c3C(=O)O)CC(C)(C)CC4)cc2)NC(=O)OC2COC3(C)OCCC23)cc1` (stereo not drawn) [Compound I-529] the figure was 4.98 nM; with `COc1ccc(S(=O)(=O)N(CC(C)C)CC(O)C(Cc2ccc(NCc3ccncc3-c3sc4c(c3C(=O)O)CC(C)(C)CC4)cc2)NC(=O)OC2COC3(C)OCCC23)cc1` (stereo not drawn) [Compound I-273], 2.25 nM.
For `COc1ccc(S(=O)(=O)N(CC(C)C)CC(O)C(Cc2ccc(N(C)Cc3ncccc3-c3cccc(-c4sc5c(c4C(=O)O)CC(C)(C)CC5)c3)cc2)NC(=O)OC2COC3(C)OCCC23)cc1` (stereo not drawn) [Compound I-512], half-maximal inhibition (IC50) was put at 1.63 nM.
`COc1ccc(S(=O)(=O)N(CC(C)C)CC(O)C(Cc2ccc(N(Cc3ccccn3)Cc3ccccc3-c3sc4c(c3C(=O)O)CC(C)(C)CC4)cc2)NC(=O)OC2COC3(C)OCCC23)cc1` (stereo not drawn) [Compound I-486] gave an IC50 of 4.59 nM.
With `COc1ccc(S(=O)(=O)N(CC(C)C)CC(O)C(Cc2ccc(NCc3cnc(-c4sc5c(c4C(=O)O)CC(C)(C)CC5)c(C)c3)cc2)NC(=O)OC2COC3(C)OCCC23)cc1` (stereo not drawn) [Compound I-559] the figure was 1.87 nM.
`COc1ccc(S(=O)(=O)N(CC(C)C)CC(O)C(Cc2ccc(NCc3cc(N4CC(C)(C)C4=O)ccc3-c3sc4c(c3C(=O)O)CC(C)(C)CC4)cc2)NC(=O)OC2COC3(C)OCCC23)cc1` (stereo not drawn) [Compound I-728] showed a concentration for half-maximal inhibition (IC50) of 2.96 nM.
With `COc1ccc(S(=O)(=O)N(CC(C)C)CC(O)C(Cc2ccc(NCc3cc4ccccc4cc3NC(=O)c3sc4c(c3C(=O)O)CC(C)(C)CC4)cc2)NC(=O)OC2COC3(C)OCCC23)cc1` (stereo not drawn) [Compound I-612] the figure was 2.11 nM.
